Reference: patent US10335608B2, “Photodynamic compounds and methods for activating them using ionizing radiation and/or other electromagnetic radiation for therapy and/or diagnostics” (THERALASE TECHNOLOGIES, INC., priority 2016, dated 2019)

Experiments:
[1] = system: U87 cells; experiment: Presto Blue cell kill after light and/or X-ray PDT, U87 cells; type: cell-based, human; settings: 20 μM
Method: The cells were incubated in complete DMEM media containing antibiotics and 10% FBS (resulting in 2.5 μM bovine Tf in the medium) and all the solutions were prepared in this media. The cells were loaded with TLD1433 or TLDOsH2IP (20-80 μM) for 4 hours at 37° C. Subsequently, a wash with complete medium was performed followed by irradiation with red (625 nm, 90 J cm^−2) or near infrared (808 nm, 600 J cm^−2) light, X-ray (5 Gy, 225 keV), X-ray followed by light or light followed by X-ray. Matched dark controls were used in parallel: incubation at ambient conditions (ambient air, room temperature) for a length of time corresponding to the irradiation session. After irradiation, the cells were returned to the incubator. After 21 hours, the viability of cells was determined by Presto Blue assay, and cell kill was calculated as percent of matched control. Pure PDT effect was calculated in the following way: Pure PDT effect (percent cell kill)=Total PDT percent cell kill−Light alone percent cell kill−Dark percent cell kill.

[2] = In vivo CT imaging of the photosensitizer after tail vein injection; settings: rat, 1 mg/kg via tail vein, 5 min to 4 hours post administration
Method: For in vivo imaging of the photosensitizer, a rat was injected with 1 mg/kg of OsH2dppn via tail vein and imaged with a small animal CT scanner as a function of time post-systemic administration (5, 10, 30 min, 1, 2, 4 hours).

[3] = near infrared light (808 nm, 600 J cm^−2)

Compound	Dark cell kill (%) ([1]; no irradiation)	PDT cell kill (%) ([1]; Near Infrared & X-ray)	Pure PDT effect (% cell kill, in brackets) ([1]; Near Infrared & X-ray) [% cell kill]	Synergy in the pure PDT effect (% cell kill) ([1]; Near Infrared & X-ray)	PDT cell kill (%) ([1]; X-ray & Near Infrared)	Pure PDT effect (% cell kill, in brackets) ([1]; X-ray & Near Infrared) [% cell kill]	Synergy in the pure PDT effect (% cell kill) ([1]; X-ray & Near Infrared)	PDT cell kill (%) ([1]; X-ray (5 Gy, 225 KeV))	Pure PDT effect (% cell kill, in brackets) ([1]; X-ray (5 Gy, 225 KeV)) [% cell kill]	PDT cell kill (%) [1, 3] [%]	Pure PDT effect (% cell kill, in brackets) [1, 3] [% cell kill]	Distribution on CT images over time [2]
[Os+2].c1ccc2nc(-c3ccc4ccccc4n3)ccc2c1.c1ccc2nc(-c3ccc4ccccc4n3)ccc2c1.c1cnc2c(c1)c1nc[nH]c1c1cccnc12 [OsH2IP, [Os(biq)2(LL)] imidazo[4,5-f][1,10]phenanthroline]	5.1	31.5	17.0	−9.3	50.0	39.6	13.4	13.8	6.8	24.6	19.5	
[Os+2].c1ccc2cc3nc4c5cccnc5c5ncccc5c4nc3cc2c1.c1ccc2nc(-c3ccc4ccccc4n3)ccc2c1.c1ccc2nc(-c3ccc4ccccc4n3)ccc2c1 [OsH2dppn, [Os(biq)2(LL)] benzo[i]dipyrido-[3,2-a:2′,3′-c]phenazine]												presumably accumulating in the bladder over time
